{"source": "paper PMC3748076", "about": "(2013)", "key": {"[1]": {"test_system": "WT 39-mer Bcl-2 promoter sequence G-quadruplex (39Bcl-2) (DNA, G4) AGGGGCGGGCGCGGGAGGAAGGGGGCGGGAGCGGGGCTG", "assay": "ESI-MS", "details": "50 mM ammonium acetate, 20% methanol, pH about 7, 80 µM DNA, 320 µM porphyrin"}, "[2]": {"test_system": "WT 39-mer Bcl-2 promoter sequence G-quadruplex (39Bcl-2) (DNA, G4) AGGGGCGGGCGCGGGAGGAAGGGGGCGGGAGCGGGGCTG", "assay": "ITC", "details": "130 mM KCl, 20 mM potassium phosphate, 2 mM K4EDTA, pH 7.0, 25 °C"}}}
{"smiles": "C[n+]1ccc(-c2c3nc(c(-c4cc[n+](C)cc4)c4ccc([nH]4)c(-c4cc[n+](C)cc4)c4nc(c(-c5cc[n+](C)cc5)c5ccc2[nH]5)C=C4)C=C3)cc1", "values": [{"measurement": "binding", "setting": "[1]; no free DNA seen", "result": "yes"}, {"measurement": "K1", "setting": "[2]; site 1 of 2 (two equivalent sites per mode)", "result": "37.0 ± 4.0 × 10^5"}]}
{"smiles": "C[n+]1ccccc1-c1c2nc(c(-c3cccc[n+]3C)c3ccc([nH]3)c(-c3cccc[n+]3C)c3nc(c(-c4cccc[n+]4C)c4ccc1[nH]4)C=C3)C=C2", "values": [{"measurement": "binding", "setting": "[1]; some free DNA seen", "result": "yes"}, {"measurement": "K1", "setting": "[2]; two equivalent sites", "result": "0.7 ± 0.5 × 10^5"}]}
{"smiles": "C[n+]1cccc(-c2c3nc(c(-c4ccc[n+](C)c4)c4ccc([nH]4)c(-c4ccc[n+](C)c4)c4nc(c(-c5ccc[n+](C)c5)c5ccc2[nH]5)C=C4)C=C3)c1", "values": [{"measurement": "binding", "setting": "[1]; some free DNA seen", "result": "yes"}, {"measurement": "K1", "setting": "[2]; two equivalent sites", "result": "2.6 ± 0.5 × 10^5"}]}
